Here are results for 23 compounds from patent US10039753B2, “Imidazo[4,5-c]quinoline and imidazo[4,5-c][1,5]naphthyridine derivatives as LRRK2 inhibitors” (Pfizer Inc., priority 2015, dated 2018).

Counter-ions that a name gives are not always drawn.

The target of test [1] is T1, GST-tagged truncated LRRK2 (Homo sapiens, UniProt Q5S007).
T1 construct: GST-tagged truncated LRRK2 from Invitrogen (Cat # PV4874); GST; purchased Invitrogen PV4874
Description: LRRK2 Assay, Format 2 (Lantha Screen), WT. The class given is biochemical. To be noted: geometric mean of 2-4 determinations unless otherwise indicated (a: >=5; b: single determination). Here is the method: (§1) LRRK2 kinase activity was measured using Lantha Screen technology from Invitrogen. GST-tagged truncated LRRK2 from Invitrogen (Cat # PV4874) was incubated with a fluorescein-labeled peptide substrate based upon ezrin/radixin/moesin (ERM), also known as LRRKtide (Invitrogen cat # PR8976A), in the presence of a dose response of compound. Upon completion, the assay was stopped and detected with a terbium labeled anti-phospho-ERM antibody (Invitrogen, cat # PR8975A). […] Using Echo acoustic dispensing, 60 nL of compound was transferred to a low volume Corning 384-well assay plate. 3 μL of a working solution of substrate (200 nM LRRKtide, […]) prepared in assay buffer (50 mM HEPES, pH 7.5, 3 mM MgCl2, with 2 mM DTT and 0.01% Brij35 added fresh) was added to the 60 nL compound assay plate. The kinase reaction was started with […] of a working solution of LRRK2 enzyme at a concentration of […]. The final reaction concentrations were 100 nM LRRKtide, […], […] LRRK2 enzyme and a compound dose response with a top dose of 3 mM. The reaction was allowed to progress at room temperature for 30 minutes and then stopped with the addition of […] of detection buffer (20 mM Tris pH 7.6, 0.01% NP-40, 6 mM EDTA with 2 nM terbium labeled anti-phospho-ERM). After an incubation of 1 hour at room temperature, the plate was read on an Envision with an excitation wavelength of 340 nm and a reading emission at both 520 nm and 495 nm. The ratio of the 520 nm and 495 nm emission was used to analyze the data. Inhibition of mutant G2019S LRRK2 (Invitrogen cat # PV4881) was measured in the exact same method. All final concentrations of substrate ATP and enzyme were the same.

Test [2] concerns the target mutant G2019S LRRK2 (Homo sapiens, UniProt Q5S007, G2019S). Description: LRRK2 Assay, Format 2 (Lantha Screen), G2019S mutant. It counts as biochemical. More on the design: purchased Invitrogen PV4881. Particulars: geometric mean of 2-4 determinations unless otherwise indicated (a: >=5; b: single determination); read-out: LRRK2, Format 2 G2019S IC50. Here is the method:
as §1

T1 sequence (Q5S007 970-2527 limits assumed): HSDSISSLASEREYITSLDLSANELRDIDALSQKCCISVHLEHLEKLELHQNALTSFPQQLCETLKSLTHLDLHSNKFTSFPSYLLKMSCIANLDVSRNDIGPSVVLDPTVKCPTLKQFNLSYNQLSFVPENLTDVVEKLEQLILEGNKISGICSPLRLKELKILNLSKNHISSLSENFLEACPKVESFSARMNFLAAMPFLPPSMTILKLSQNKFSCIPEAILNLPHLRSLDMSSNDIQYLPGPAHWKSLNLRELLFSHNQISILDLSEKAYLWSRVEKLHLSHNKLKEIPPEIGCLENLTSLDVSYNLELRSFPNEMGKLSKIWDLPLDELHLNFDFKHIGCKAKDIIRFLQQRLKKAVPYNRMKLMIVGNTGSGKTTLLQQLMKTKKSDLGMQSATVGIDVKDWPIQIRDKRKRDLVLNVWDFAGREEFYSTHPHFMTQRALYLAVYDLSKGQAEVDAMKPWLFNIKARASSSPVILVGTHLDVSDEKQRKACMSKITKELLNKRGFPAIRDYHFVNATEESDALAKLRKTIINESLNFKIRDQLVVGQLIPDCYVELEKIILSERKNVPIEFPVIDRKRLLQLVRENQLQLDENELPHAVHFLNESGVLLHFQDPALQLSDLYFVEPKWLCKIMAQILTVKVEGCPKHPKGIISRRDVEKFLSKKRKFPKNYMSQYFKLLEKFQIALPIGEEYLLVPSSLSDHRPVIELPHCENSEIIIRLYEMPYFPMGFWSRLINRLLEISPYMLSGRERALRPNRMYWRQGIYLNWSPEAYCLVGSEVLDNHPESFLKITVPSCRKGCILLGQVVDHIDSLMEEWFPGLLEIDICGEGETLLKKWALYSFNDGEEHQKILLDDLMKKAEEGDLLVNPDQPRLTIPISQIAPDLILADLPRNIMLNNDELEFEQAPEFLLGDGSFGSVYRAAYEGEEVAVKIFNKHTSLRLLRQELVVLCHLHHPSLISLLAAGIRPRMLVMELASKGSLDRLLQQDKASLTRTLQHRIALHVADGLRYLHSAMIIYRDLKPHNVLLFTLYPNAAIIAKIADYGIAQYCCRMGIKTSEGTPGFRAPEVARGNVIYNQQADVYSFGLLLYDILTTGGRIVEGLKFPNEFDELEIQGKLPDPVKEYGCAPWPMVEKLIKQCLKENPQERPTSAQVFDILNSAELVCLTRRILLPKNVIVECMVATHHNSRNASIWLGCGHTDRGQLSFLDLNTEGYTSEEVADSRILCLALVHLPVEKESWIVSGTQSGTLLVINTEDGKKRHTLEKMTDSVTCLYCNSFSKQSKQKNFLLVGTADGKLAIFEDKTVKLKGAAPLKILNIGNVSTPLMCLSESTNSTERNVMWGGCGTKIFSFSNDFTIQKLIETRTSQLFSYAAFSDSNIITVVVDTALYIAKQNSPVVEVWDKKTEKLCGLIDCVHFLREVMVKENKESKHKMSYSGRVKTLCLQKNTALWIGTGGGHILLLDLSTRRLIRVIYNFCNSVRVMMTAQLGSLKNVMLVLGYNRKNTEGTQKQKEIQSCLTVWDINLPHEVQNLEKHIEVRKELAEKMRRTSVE
Sequence of mutant G2019S LRRK2 (Q5S007 970-2527 G2019S limits assumed): as the sequence (Q5S007 970-2527 limits assumed) above, with G1050S counted along it

For orientation: IC50 means the point on the concentration scale where inhibition reaches its midpoint. Consider `Cc1cnn(Cc2nc3cnc4ccc(Cl)cc4c3n2[C@@H]2CCO[C@H](C)C2)n1` [Example 103, 8-Chloro-1-[(2R,4R)-2-methyltetrahydro-2H-pyran-4-yl]-2-[(4-methyl-2H-1,2,3-triazol-2-yl)methyl]-1H-imidazo[4,5-c]quinoline], for which the values for the 50% inhibitory concentration (IC50) in test [1] and in test [2] were 11.2 nM and 10.6 nM, respectively.

As to `C[C@@H]1C[C@H](n2c(CC#N)nc3cnc4ccc(C#N)cc4c32)CCO1` [Example 117, 2-(cyanomethyl)-1-[(2R,4R)-2-methyltetrahydro-2H-pyran-4-yl]-1H-imidazo[4,5-c]quinoline-8-carbonitrile], the values for the IC50 in test [1] and in test [2] were 16.8 nM and 19.6 nM, respectively.

`C[C@@H]1C[C@H](n2c(Cc3cc(C(F)(F)F)on3)nc3cnc4ccc(C#N)cc4c32)CCO1` [Example 119, 1-[(2R,4R)-2-methyltetrahydro-2H-pyran-4-yl]-2-{[5-(trifluoromethyl)-1,2-oxazol-3-yl]methyl}-1H-imidazo[4,5-c]quinoline-8-carbonitrile]: the 50% inhibitory concentration (IC50) in test [1] was 7.53 nM; in test [2], 8.21 nM.

In the case of `C[C@@H]1C[C@H](n2c(Cn3cncn3)nc3cnc4ccc(C#N)cc4c32)CCO1` [Example 120, 1-[(2R,4R)-2-methyltetrahydro-2H-pyran-4-yl]-2-(1H-1,2,4-triazol-1-ylmethyl)-1H-imidazo[4,5-c]quinoline-8-carbonitrile, formate salt], the IC50 in test [1] worked out at 5.74 nM; in test [2] it was 5.07 nM.

Take `C[C@@H]1C[C@H](n2c(Cn3cccn3)nc3cnc4ccc(C#N)cc4c32)CCO1` [Example 121, 1-[(2R,4R)-2-methyltetrahydro-2H-pyran-4-yl]-2-(1H-pyrazol-1-ylmethyl)-1H-imidazo[4,5-c]quinoline-8-carbonitrile, formate salt]: the half-maximal inhibitory concentration (IC50) in test [1] stood at 6.19 nM; in test [2], 5.61 nM.

Turning to `C[C@@H]1C[C@H](n2c(Cc3coc(C4CC4)n3)nc3cnc4ccc(C#N)cc4c32)CCO1` [Example 122, 2-[(2-cyclopropyl-1,3-oxazol-4-yl)methyl]-1-[(2R,4R)-2-methyltetrahydro-2H-pyran-4-yl]-1H-imidazo[4,5-c]quinoline-8-carbonitrile, formate salt], the IC50 in test [1] worked out at 4.3 nM; in test [2], 3.7 nM.

For `Cc1nc(Cc2nc3cnc4ccc(C#N)cc4c3n2[C@@H]2CCO[C@H](C)C2)no1` [Example 123, 2-[(5-methyl-1,2,4-oxadiazol-3-yl)methyl]-1-[(2R,4R)-2-methyltetrahydro-2H-pyran-4-yl]-1H-imidazo[4,5-c]quinoline-8-carbonitrile], the results for the IC50 in test [1] and in test [2] were 9.25 nM and 8.91 nM, respectively.

As for `C[C@@H]1C[C@H](n2c(Cn3cnnn3)nc3cnc4ccc(C#N)cc4c32)CCO1` [Example 124, 1-[(2R,4R)-2-methyltetrahydro-2H-pyran-4-yl]-2-(1H-tetrazol-1-ylmethyl)-1H-imidazo[4,5-c]quinoline-8-carbonitrile, formate salt], the 50% inhibitory concentration (IC50) in test [1] is 6.22 nM; in test [2] it was 5.33 nM.

With `C[C@@H]1C[C@H](n2c(Cn3cc(C4CC4)nn3)nc3cnc4ccc(C#N)cc4c32)CCO1` [Example 125, 2-[(4-cyclopropyl-1H-1,2,3-triazol-1-yl)methyl]-1-[(2R,4R)-2-methyltetrahydro-2H-pyran-4-yl]-1H-imidazo[4,5-c]quinoline-8-carbonitrile, formate salt], the figures for the IC50 in test [1] and in test [2] were 7 nM and 6.19 nM, respectively.

In the case of `CC(C)c1cn(Cc2nc3cnc4ccc(C#N)cc4c3n2[C@@H]2CCO[C@H](C)C2)nn1` [Example 126, 1-[(2R,4R)-2-methyltetrahydro-2H-pyran-4-yl]-2-{[4-(propan-2-yl)-1H-1,2,3-triazol-1-yl]methyl}-1H-imidazo[4,5-c]quinoline-8-carbonitrile, formate salt], the IC50 in test [1] came out at 8.39 nM; in test [2], 8.04 nM.

`C[C@@H]1C[C@H](n2c(Cc3cnco3)nc3cnc4ccc(Cl)cc4c32)CCO1` [Example 127, 8-chloro-1-[(2R,4R)-2-methyltetrahydro-2H-pyran-4-yl]-2-(1,3-oxazol-5-ylmethyl)-1H-imidazo[4,5-c]quinoline, formate salt]: the 50% inhibitory concentration (IC50) in test [1] was 7.02 nM; in test [2] it was 8.01 nM.

Consider `C[C@@H]1C[C@H](n2c(Cc3nnnn3C)nc3cnc4ccc(Cl)cc4c32)CCO1` [Example 128, 8-chloro-1-[(2R,4R)-2-methyltetrahydro-2H-pyran-4-yl]-2-[(1-methyl-1H-tetrazol-5-yl)methyl]-1H-imidazo[4,5-c]quinoline, formate salt], for which the 50% inhibitory concentration (IC50) stood at 7.18 nM in test [1] and 6.95 nM in test [2].

Turning to `C[C@@H]1C[C@H](n2c(Cn3cnnn3)nc3cnc4ccc(Cl)cc4c32)CCO1` [Example 129, 8-chloro-1-[(2R,4R)-2-methyltetrahydro-2H-pyran-4-yl]-2-(1H-tetrazol-1-ylmethyl)-1H-imidazo[4,5-c]quinoline, formate salt], the IC50 in test [1] was 3.64 nM; in test [2], 4.17 nM.

As to `C[C@@H]1C[C@H](n2c(Cn3cccn3)nc3cnc4ccc(Cl)cc4c32)CCO1` [Example 130, 8-chloro-1-[(2R,4R)-2-methyltetrahydro-2H-pyran-4-yl]-2-(1H-pyrazol-1-ylmethyl)-1H-imidazo[4,5-c]quinoline, formate salt], the IC50 in test [1] amounted to 3.43 nM; in test [2], 3.84 nM.

For the compound `C[C@@H]1C[C@H](n2c(Cc3cn(C)cn3)nc3cnc4ccc(Cl)cc4c32)CCO1` [Example 131, 8-chloro-2-[(1-methyl-1H-imidazol-4-yl)methyl]-1-[(2R,4R)-2-methyltetrahydro-2H-pyran-4-yl]-1H-imidazo[4,5-c]quinoline], the results for the IC50 in test [1] and in test [2] were 7.23 nM and 7.86 nM, respectively.

`Cc1cnn(Cc2nc3cnc4ccc(C#N)cc4c3n2[C@@H]2CCO[C@H](C)C2)c1` [Example 133, 2-[(4-methyl-1H-pyrazol-1-yl)methyl]-1-[(2R,4R)-2-methyltetrahydro-2H-pyran-4-yl]-1H-imidazo[4,5-c]quinoline-8-carbonitrile]: the values for the IC50 in test [1] and in test [2] were 7.68 nM and 7.16 nM, respectively.

`Cc1cc(Cc2nc3cnc4ccc(Cl)cc4c3n2[C@@H]2CCO[C@H](CO)C2)no1` [Example 137, [(2S,4R)-4-{8-chloro-2-[(5-methyl-1,2-oxazol-3-yl)methyl]-1H-imidazo[4,5-c]quinolin-1-yl}tetrahydro-2H-pyran-2-yl]methanol]: the 50% inhibitory concentration (IC50) came out at 14.1 nM in test [1] and 12 nM in test [2].

Take `C[C@@H]1C[C@H](n2c(Cc3cc(CO)on3)nc3cnc4ccc(Cl)cc4c32)CCO1` [Example 138]: the concentration for half-maximal inhibition (IC50) in test [1] turned out to be 2.89 nM; in test [2] it was 3.72 nM.

Take `C[C@@H]1C[C@H](n2c(Cc3cc(CF)on3)nc3cnc4ccc(Cl)cc4c32)CCO1` [Example 139, 8-chloro-2-{[5-(fluoromethyl)-1,2-oxazol-3-yl]methyl}-1-[(2R,4R)-2-methyltetrahydro-2H-pyran-4-yl]-1H-imidazo[4,5-c]quinoline]: the IC50 in test [1] turned out to be 2.76 nM; in test [2] it was 2.79 nM.

Consider `Cc1cnc(Cc2nc3cnc4ccc(C(F)(F)F)cc4c3n2[C@@H]2CCO[C@H](C)C2)cn1` [Example 141, 2-[(5-methylpyrazin-2-yl)methyl]-1-[(2R,4R)-2-methyltetrahydro-2H-pyran-4-yl]-8-(trifluoromethyl)-1H-imidazo[4,5-c]quinoline], for which the concentration for half-maximal inhibition (IC50) is 2.07 nM in test [1] and 1.38 nM in test [2].

For `C[C@@H]1C[C@H](n2c(Cc3cccnn3)nc3cnc4ccc(Cl)cc4c32)CCO1` [Example 142, 8-chloro-1-[(2R,4R)-2-methyltetrahydro-2H-pyran-4-yl]-2-(pyridazin-3-ylmethyl)-1H-imidazo[4,5-c]quinoline], the IC50 is 7.11 nM in test [1] and 5.63 nM in test [2].

Regarding `Cc1cn(Cc2nc3cnc4ccc(Cl)cc4c3n2C2CCOC(C)(C)C2)nn1` (stereo not shown) [Example 148, 8-chloro-1-(2,2-dimethyltetrahydro-2H-pyran-4-yl)-2-[(4-methyl-1H-1,2,3-triazol-1-yl)methyl]-1H-imidazo[4,5-c]quinoline, formate salt], the concentration for half-maximal inhibition (IC50) turned out to be 12.6 nM in test [1] and 13.6 nM in test [2].

As for `C[C@@H]1C[C@H](n2c(Cc3cn4ncsc4n3)nc3cnc4ccc(C#N)cc4c32)CCO1` [Example 149, 2-(imidazo[2,1-b][1,3,4]thiadiazol-6-ylmethyl)-1-[(2R,4R)-2-methyltetrahydro-2H-pyran-4-yl]-1H-imidazo[4,5-c]quinoline-8-carbonitrile], the half-inhibitory concentration (IC50) turned out to be 2.04 nM in test [1] and 2.12 nM in test [2].
